The target in assay [1] is BDNF/NT-3 growth factors receptor (Homo sapiens, UniProt Q16620). Description: Inhibitory Activity of Compounds on TRKA, TRKB and TRKC.
Assay [2] addresses High affinity nerve growth factor receptor (Homo sapiens, UniProt P04629). The assay is described as above.
For assay [3], the target named is NT-3 growth factor receptor (Homo sapiens, UniProt Q16288). The assay is described as above.
Assay [4] concerns the target Proto-oncogene tyrosine-protein kinase receptor Ret (Homo sapiens, UniProt P07949). Nature of the assay: Inhibitory Activity of Compounds on RET Kinase.

For orientation: IC50 means the concentration that inhibits the measured activity by half. A low value points to greater potency in that assay.

Chain of BDNF/NT-3 growth factors receptor (Q16620 whole entry): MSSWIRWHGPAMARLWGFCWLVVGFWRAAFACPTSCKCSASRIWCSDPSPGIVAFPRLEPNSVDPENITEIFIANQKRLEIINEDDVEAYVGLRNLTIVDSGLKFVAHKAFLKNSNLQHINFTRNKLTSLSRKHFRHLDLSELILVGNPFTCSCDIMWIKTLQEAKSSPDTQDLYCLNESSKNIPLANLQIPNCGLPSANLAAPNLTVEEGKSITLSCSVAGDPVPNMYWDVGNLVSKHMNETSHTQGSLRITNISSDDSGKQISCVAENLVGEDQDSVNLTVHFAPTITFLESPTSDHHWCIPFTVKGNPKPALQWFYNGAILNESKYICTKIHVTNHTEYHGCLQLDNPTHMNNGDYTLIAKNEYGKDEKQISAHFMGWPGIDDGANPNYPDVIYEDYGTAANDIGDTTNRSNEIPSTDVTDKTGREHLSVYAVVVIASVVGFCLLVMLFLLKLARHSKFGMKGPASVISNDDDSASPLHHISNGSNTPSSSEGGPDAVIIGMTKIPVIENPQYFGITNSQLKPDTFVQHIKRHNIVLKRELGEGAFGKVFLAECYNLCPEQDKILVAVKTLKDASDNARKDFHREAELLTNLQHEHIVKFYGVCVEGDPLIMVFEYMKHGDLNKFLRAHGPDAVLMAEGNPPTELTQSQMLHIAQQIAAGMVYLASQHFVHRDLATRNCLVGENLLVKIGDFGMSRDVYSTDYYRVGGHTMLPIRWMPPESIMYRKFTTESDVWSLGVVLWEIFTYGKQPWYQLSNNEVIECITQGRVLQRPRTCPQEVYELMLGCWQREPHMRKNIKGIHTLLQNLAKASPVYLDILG
Chain of High affinity nerve growth factor receptor (P04629 whole entry): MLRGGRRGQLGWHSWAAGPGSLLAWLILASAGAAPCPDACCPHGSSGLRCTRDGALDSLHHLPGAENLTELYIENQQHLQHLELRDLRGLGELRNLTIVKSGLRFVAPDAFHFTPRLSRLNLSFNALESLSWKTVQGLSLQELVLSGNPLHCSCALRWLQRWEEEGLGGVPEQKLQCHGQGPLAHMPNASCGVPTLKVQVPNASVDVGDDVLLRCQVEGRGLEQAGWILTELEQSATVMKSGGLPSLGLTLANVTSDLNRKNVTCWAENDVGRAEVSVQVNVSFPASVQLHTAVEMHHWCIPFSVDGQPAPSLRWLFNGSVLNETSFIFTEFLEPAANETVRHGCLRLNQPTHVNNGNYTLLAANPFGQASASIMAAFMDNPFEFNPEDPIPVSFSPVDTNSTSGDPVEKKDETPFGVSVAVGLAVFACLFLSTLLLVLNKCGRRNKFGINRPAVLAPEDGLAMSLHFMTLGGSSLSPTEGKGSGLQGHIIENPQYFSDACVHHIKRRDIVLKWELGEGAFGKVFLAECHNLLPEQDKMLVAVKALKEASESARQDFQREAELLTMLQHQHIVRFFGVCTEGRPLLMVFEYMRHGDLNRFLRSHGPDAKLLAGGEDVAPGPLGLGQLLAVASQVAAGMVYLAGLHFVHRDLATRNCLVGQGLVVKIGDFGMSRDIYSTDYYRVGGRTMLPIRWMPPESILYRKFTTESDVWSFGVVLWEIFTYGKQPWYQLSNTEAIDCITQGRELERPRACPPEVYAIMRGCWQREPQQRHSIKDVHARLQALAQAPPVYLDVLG
Chain of NT-3 growth factor receptor (Q16288 whole entry): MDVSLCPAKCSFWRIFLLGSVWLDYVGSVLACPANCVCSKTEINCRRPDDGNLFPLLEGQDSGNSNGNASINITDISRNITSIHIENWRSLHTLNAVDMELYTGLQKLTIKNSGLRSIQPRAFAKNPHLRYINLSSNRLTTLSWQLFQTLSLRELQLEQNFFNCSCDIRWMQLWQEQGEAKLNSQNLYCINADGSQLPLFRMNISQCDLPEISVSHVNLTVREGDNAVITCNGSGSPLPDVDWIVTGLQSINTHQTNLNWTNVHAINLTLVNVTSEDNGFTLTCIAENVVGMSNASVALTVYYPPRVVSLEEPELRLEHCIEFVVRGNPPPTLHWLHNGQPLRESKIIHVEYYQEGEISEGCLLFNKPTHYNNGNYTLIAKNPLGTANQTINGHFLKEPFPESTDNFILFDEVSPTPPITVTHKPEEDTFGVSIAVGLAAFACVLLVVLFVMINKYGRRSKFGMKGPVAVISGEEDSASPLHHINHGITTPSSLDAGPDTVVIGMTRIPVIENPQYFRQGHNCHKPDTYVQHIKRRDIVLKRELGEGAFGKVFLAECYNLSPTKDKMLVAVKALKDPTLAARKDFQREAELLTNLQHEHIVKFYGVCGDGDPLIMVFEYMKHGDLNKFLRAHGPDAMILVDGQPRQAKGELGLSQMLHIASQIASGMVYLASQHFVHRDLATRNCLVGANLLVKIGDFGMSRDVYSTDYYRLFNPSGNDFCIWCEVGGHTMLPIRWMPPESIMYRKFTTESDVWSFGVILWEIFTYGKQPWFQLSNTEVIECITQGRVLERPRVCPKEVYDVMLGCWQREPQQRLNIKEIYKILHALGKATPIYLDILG
Chain of Proto-oncogene tyrosine-protein kinase receptor Ret (P07949 whole entry): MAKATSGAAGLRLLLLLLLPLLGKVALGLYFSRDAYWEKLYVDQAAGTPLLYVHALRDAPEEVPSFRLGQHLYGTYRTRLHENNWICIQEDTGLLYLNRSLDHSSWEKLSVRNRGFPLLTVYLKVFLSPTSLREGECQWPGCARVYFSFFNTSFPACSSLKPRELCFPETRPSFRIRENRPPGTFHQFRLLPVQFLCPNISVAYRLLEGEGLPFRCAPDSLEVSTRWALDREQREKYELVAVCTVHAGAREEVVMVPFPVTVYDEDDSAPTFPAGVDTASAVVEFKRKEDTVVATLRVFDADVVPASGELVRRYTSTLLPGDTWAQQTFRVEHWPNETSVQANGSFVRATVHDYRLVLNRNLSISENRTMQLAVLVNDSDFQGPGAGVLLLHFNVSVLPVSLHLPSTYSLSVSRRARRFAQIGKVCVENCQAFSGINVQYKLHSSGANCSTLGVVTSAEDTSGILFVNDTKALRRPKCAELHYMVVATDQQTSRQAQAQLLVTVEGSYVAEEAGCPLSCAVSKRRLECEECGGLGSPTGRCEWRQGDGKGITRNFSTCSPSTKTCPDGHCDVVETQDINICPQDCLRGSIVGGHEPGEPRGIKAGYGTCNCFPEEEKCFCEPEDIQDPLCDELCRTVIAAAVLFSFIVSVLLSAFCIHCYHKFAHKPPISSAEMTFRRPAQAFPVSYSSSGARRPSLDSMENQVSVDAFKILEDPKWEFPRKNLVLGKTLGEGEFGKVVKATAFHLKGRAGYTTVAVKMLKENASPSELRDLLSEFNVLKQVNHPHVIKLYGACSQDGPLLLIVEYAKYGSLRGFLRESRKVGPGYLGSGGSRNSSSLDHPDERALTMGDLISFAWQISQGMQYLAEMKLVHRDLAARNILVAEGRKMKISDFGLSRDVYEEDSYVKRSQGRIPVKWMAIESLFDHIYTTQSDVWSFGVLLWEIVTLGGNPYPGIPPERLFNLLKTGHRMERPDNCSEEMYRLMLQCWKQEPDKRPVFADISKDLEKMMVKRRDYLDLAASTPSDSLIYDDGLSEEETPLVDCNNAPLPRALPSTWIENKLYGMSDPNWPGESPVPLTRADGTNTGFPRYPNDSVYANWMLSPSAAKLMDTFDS

Regarding `CCc1cc(O)c(F)cc1-c1ccc2c(-c3nc4c([nH]3)CN(C3CN(C)CCN3C(=O)N3CCN(C)CC3N3Cc5nc(-c6n[nH]c7cc(-c8cc(F)c(O)cc8CC)ccc67)[nH]c5C3)C4)n[nH]c2c1` (stereo not drawn) [US20250387388, Compound MDI-235], the IC50 is 1.39 nM in assay [1], 0.57 nM in assay [2], 0.27 nM in assay [3] and 0.1 nM in assay [4].
For the molecule `CCc1cc(O)c(F)cc1-c1ccc2c(-c3nc4c([nH]3)CN(c3nc(N5CCOCC5)cnc3C(=O)c3ncc(N5CCOCC5)nc3N3Cc5nc(-c6n[nH]c7cc(-c8cc(F)c(O)cc8CC)ccc67)[nH]c5C3)C4)n[nH]c2c1` [US20250387388, Compound MDI-201], the IC50 in assay [1] came to 6.14 nM; in assay [2], 5.76 nM; in assay [3], 2.2 nM.
On to `CCc1cc(O)c(F)cc1-c1ccc2c(-c3nc4c([nH]3)CN(C3CN(CC)CCN3C(=O)N3CCN(CC)CC3N3Cc5nc(-c6n[nH]c7cc(-c8cc(F)c(O)cc8CC)ccc67)[nH]c5C3)C4)n[nH]c2c1` (stereo not drawn) [US20250387388, Compound MDI-236], for which the figures for the concentration for half-maximal inhibition (IC50) in assay [1], in assay [2] and in assay [3] were 1.06 nM, 0.23 nM and 0.2 nM, respectively.
As to `CCc1cc(O)c(F)cc1-c1ccc2c(-c3nc4c([nH]3)CN(C3CC(O)CCN3C(=O)N3CCC(O)CC3N3Cc5nc(-c6n[nH]c7cc(-c8cc(F)c(O)cc8CC)ccc67)[nH]c5C3)C4)n[nH]c2c1` (stereo not drawn) [US20250387388, Compound MDI-245], the IC50 in assay [1] worked out at 3.37 nM; in assay [2], 0.83 nM; in assay [3] it was 0.57 nM; in assay [4], 0.99 nM.
For `CCc1cc(O)c(F)cc1-c1ccc2c(-c3nc4c([nH]3)CN(C3CN(C(=O)N5CCOC(N6Cc7nc(-c8n[nH]c9cc(-c%10cc(F)c(O)cc%10CC)ccc89)[nH]c7C6)C5)CCO3)C4)n[nH]c2c1` (stereo not drawn) [US20250387388, Compound MDI-234], the IC50 in assay [1] is 1.27 nM; in assay [2] it was 1.07 nM; in assay [3] it was 0.65 nM.
In the same order, the values of `CCc1cc(O)c(F)cc1-c1ccc2c(-c3nc4c([nH]3)CN(C3CCCCN3C(=O)N3CCCCC3N3Cc5nc(-c6n[nH]c7cc(-c8cc(F)c(O)cc8CC)ccc67)[nH]c5C3)C4)n[nH]c2c1` (stereo not drawn) [US20250387388, Compound MDI-233] are 30.4 nM, 9.01 nM and 6.32 nM.
Taken in the same sequence, the figures for `CCc1cc(O)c(F)cc1-c1ccc2c(-c3nc4c([nH]3)CN(C3CCCN3C(=O)N3CCCC3N3Cc5nc(-c6n[nH]c7cc(-c8cc(F)c(O)cc8CC)ccc67)[nH]c5C3)C4)n[nH]c2c1` (stereo not drawn) [US20250387388, Compound MDI-231] were 5.86 nM, 2.82 nM and 1.49 nM.

The record behind these values is BindingDB's records for patent US20250387388 (Medinno Pharmaceutical Technology (Zhuhai) Co., 2025).
